# Results as given in ChEMBL document CHEMBL1201862, “PubChem BioAssay data set” (2004).
#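 96-well plates; 48 h exposure; 5 concentrations. Endpoints by linear interpolation between flanking doses. Not reached: highest tested concentration assigned. The concentration for 50% growth inhibition is given as GI50.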 Active and inactive are the calls of the source. No stated cut-off is given here; in the data, active = GI50 up to about 1.1 µM and inactive = higher.
# How the values were obtained:
# Experiment in all cases: NCI-60 cell line screen, 48 h
# SN12C = test system: SN12C
# SF-539 = test system: SF-539
# Hs-578T = test system: Hs-578T
# SK-MEL-5 = test system: SK-MEL-5
# DU-145 = test system: DU-145
# HCT-15 = test system: HCT-15
# OVCAR-5 = test system: OVCAR-5
# SK-MEL-2 = test system: SK-MEL-2
# NCI-H460 = test system: NCI-H460
# K562 = test system: K562
# HL-60 = test system: HL-60
# MDA-N = test system: MDA-N
# EKVX = test system: EKVX
# RXF 393 = test system: RXF 393
# Malme-3M = test system: Malme-3M
# NCI/ADR-RES = test system: NCI/ADR-RES
# SNB-75 = test system: SNB-75
# KM12 = test system: KM12
# CCRF-CEM = test system: CCRF-CEM
# NCI-H522 = test system: NCI-H522
SMILES,GI50 (SN12C),GI50 (SF-539),GI50 (Hs-578T),GI50 (SK-MEL-5),GI50 (DU-145),GI50 (HCT-15) [µM],GI50 (OVCAR-5),GI50 (SK-MEL-2),GI50 (NCI-H460),GI50 (K562),GI50 (HL-60),GI50 (MDA-N),GI50 (EKVX),GI50 (RXF 393),GI50 (Malme-3M),GI50 (NCI/ADR-RES),GI50 (SNB-75),GI50 (KM12),GI50 (CCRF-CEM),GI50 (NCI-H522)
CCCNc1[nH]c(C(C)=O)c(N)c1C(=S)Nc1ccccc1,32.8 µM (inactive),10.8 µM (inactive),39.3 µM (inactive),22.7 µM (inactive),54.7 µM (inactive),31.8,68.9 µM (inactive),9.2 µM (inactive),33.9 µM (inactive),43.4 µM (inactive),37.7 µM (inactive),41.4 µM (inactive),35.2 µM (inactive),20.4 µM (inactive),28 µM (inactive),28.7 µM (inactive),37 µM (inactive),34 µM (inactive),46.5 µM (inactive),4.15 µM (inactive)
COc1cc(OC(=O)c2ccccc2)cc2c1C(=O)C=CC2=O,19.5 µM (inactive),20.1 µM (inactive),25.1 µM (inactive),16 µM (inactive),17.7 µM (inactive),11.9,32.7 µM (inactive),18.1 µM (inactive),34.2 µM (inactive),1.88 µM (inactive),0.556 µM (active),6.44 µM (inactive),13.2 µM (inactive),10.9 µM (inactive),15.3 µM (inactive),15.2 µM (inactive),22.6 µM (inactive),15.1 µM (inactive),0.543 µM (active),5.31 µM (inactive)
COc1ccc(/[N+]([O-])=C/c2ccc(OC(=S)S)c(OC)c2)cc1,37.7 µM (inactive),45.4 µM (inactive),34.4 µM (inactive),24.5 µM (inactive),41.6 µM (inactive),22.2,> 100 µM (inactive),35.5 µM (inactive),> 100 µM (inactive),21.7 µM (inactive),17.3 µM (inactive),21.3 µM (inactive),31.4 µM (inactive),19.6 µM (inactive),62.7 µM (inactive),22.7 µM (inactive),16.3 µM (inactive),8.39 µM (inactive),,25.8 µM (inactive)
